Measured values from patent publication US20190030018A1 (Celgene Corporation, priority 2017, published 2019).

System: 563 solid tumor cell lines
Assay: Luminex assay in PRISM, 5 days treatment (AUC)
Assay type: cell-based
Set-up: AUC: scale not given here
Method: The AUC values provided in Table 80 below were calculated based on the Median Fluorescent Intensity values, the primary read out of the Luminex assay in PRISM. The following parameters were used in this assay: • 8 point dose was used in triplicate • max concentration of 10 μM was used with serial 4-fold dilutions (low of […]) • 563 adherent cell lines in 23 pools. • treatment duration was 5 days.

`O=C1CCC(N2Cc3cc(CNC(=O)C(F)(F)c4ccc(Cl)cc4)ccc3C2=O)C(=O)N1` (stereo not shown) [Compound 1, 2-(4-chlorophenyl)-N-((2-(2,6-dioxopiperidin-3-yl)-1-oxoisoindolin-5-yl)methyl)-2,2-difluoroacetamide] was tested, and the “activity on solid tumor cell lines (AUC)” value (8 point dose, max 10 μM, 5 days) was “highest activity on lung, intestine, stomach, liver, pancreatic and kidney cell lines”, the AUC (A101D_SKIN) was 0.821 and the AUC (A172_CENTRAL_NERVOUS_SYSTEM) was 0.314. For the same molecule, the AUC (A204_SOFT_TISSUE) was 0.156, the AUC (A253_SALIVARY_GLAND) was 0.864 and the AUC (A375_SKIN) was 0.795. For the same molecule, the AUC (A498_KIDNEY) was 0.845, the AUC (A549_LUNG) was 0.857 and the AUC (A673_BONE) was 0.885. It also gave an AUC (A704_KIDNEY) of 0.823, an AUC (A2058_SKIN) of 0.818 and an AUC (A2780_OVARY) of 0.485. The AUC (ABC1_LUNG) was 0.591, the AUC (ACCMESO1_PLEURA) was 0.631 and the AUC (ACHN_KIDNEY) was 0.912. For the same molecule, the AUC (AGS_STOMACH) was 0.865, the AUC (AM38_CENTRAL_NERVOUS_SYSTEM) was 0.543 and the AUC (AN3CA_ENDOMETRIUM) was 0.861. For the same molecule, the AUC (BCPAP_THYROID) was 0.782, the AUC (BECKER_CENTRAL_NERVOUS_SYSTEM) was 0.874 and the AUC (BEN_LUNG) was 0.826. For the same molecule, the AUC (BFTC909_KIDNEY) was 0.843, the AUC (BHT101_THYROID) was 0.858 and the AUC (BHY_UPPER_AERODIGESTIVE_TRACT) was 0.405. It also gave an AUC (BICR6_UPPER_AERODIGESTIVE_TRACT) of 0.801, an AUC (BICR16_UPPER_AERODIGESTIVE_TRACT) of 0.585 and an AUC (BICR18_UPPER_AERODIGESTIVE_TRACT) of 0.845. It also gave an AUC (BICR56_UPPER_AERODIGESTIVE_TRACT) of 0.984, an AUC (BT474_BREAST) of 0.801 and an AUC (BT549_BREAST) of 0.242. For the same molecule, the AUC (BXPC3_PANCREAS) was 0.916, the AUC (C32_SKIN) was 0.881 and the AUC (CADOES1_BONE) was 0.566. It also gave an AUC (CAKI2_KIDNEY) of 0.867, an AUC (CAL12T_LUNG) of 0.366 and an AUC (CAL27_UPPER_AERODIGESTIVE_TRACT) of 0.812. The AUC (CAL29_URINARY_TRACT) was 0.831, the AUC (CAL51_BREAST) was 0.589 and the AUC (CAL54_KIDNEY) was 0.679. The AUC (CAL62_THYROID) was 0.083, the AUC (CAL78_BONE) was 0.798 and the AUC (CAL120_BREAST) was 0.812. The AUC (CALU6_LUNG) was 0.794, the AUC (CAMA1_BREAST) was 0.589 and the AUC (CAPAN2_PANCREAS) was 0.835. The AUC (CBAGPN_BONE) was 0.236, the AUC (CCK81_LARGE_INTESTINE) was 0.021 and the AUC (CFPAC1_PANCREAS) was 0.872. The AUC (CHL1_SKIN) was 0.330, the AUC (CHLA10_BONE) was 0.933 and the AUC (CJM_SKIN) was 0.215. It also gave an AUC (CL11_LARGE_INTESTINE) of 0.849, an AUC (CL34_LARGE_INTESTINE) of 0.604 and an AUC (COLO678_LARGE_INTESTINE) of 0.811. It also gave an AUC (COLO679_SKIN) of 0.830, an AUC (COLO680N_OESOPHAGUS) of 0.863 and an AUC (COLO741_SKIN) of 0.411. The AUC (COLO792_SKIN) was 0.629, the AUC (COLO800_SKIN) was 0.810 and the AUC (COLO829_SKIN) was 0.748. For the same molecule, the AUC (CORL23_LUNG) was 0.879, the AUC (CORL105_LUNG) was 0.824 and the AUC (COV318_OVARY) was 0.883. The AUC (COV362_OVARY) was 0.824, the AUC (COV644_OVARY) was 0.994 and the AUC (DANG_PANCREAS) was 0.793. The AUC (DAOY_CENTRAL_NERVOUS_SYSTEM) was 0.928, the AUC (DBTRG05MG_CENTRAL_NERVOUS_SYSTEM) was 0.795 and the AUC (DETROIT562_UPPER_AERODIGESTIVE_TRACT) was 0.855. It also gave an AUC (DMS53_LUNG) of 0.903, an AUC (DMS273_LUNG) of 0.771 and an AUC (DU145_PROSTATE) of 0.878. For the same molecule, the AUC (DV90_LUNG) was 0.174, the AUC (EBC1_LUNG) was 0.960 and the AUC (ECGI10_OESOPHAGUS) was 0.877. It also gave an AUC (EFE184_ENDOMETRIUM) of 0.679, an AUC (EFM19_BREAST) of 0.917 and an AUC (EFM192A_BREAST) of 0.766. It also gave an AUC (EFO21_OVARY) of 0.843, an AUC (EFO27_OVARY) of 0.534 and an AUC (EKVX_LUNG) of 0.837. The AUC (EN_ENDOMETRIUM) was 0.831, the AUC (ES2_OVARY) was 0.801 and the AUC (ESS1_ENDOMETRIUM) was 0.512. For the same molecule, the AUC (EW8_BONE) was 0.985, the AUC (EWS502_BONE) was 0.875 and the AUC (FADU_UPPER_AERODIGESTIVE_TRACT) was 0.859. It also gave an AUC (FTC133_THYROID) of 0.833, an AUC (FTC238_THYROID) of 0.8424 and an AUC (G292CLONEA141B1_BONE) of 0.2746. It also gave an AUC (G402_SOFT_TISSUE) of 0.8297, an AUC (GAMG_CENTRAL_NERVOUS_SYSTEM) of 0.365 and an AUC (GB1_CENTRAL_NERVOUS_SYSTEM) of 0.8359. The AUC (GCIY_STOMACH) was 0.8662, the AUC (GI1_CENTRAL_NERVOUS_SYSTEM) was 0.5874 and the AUC (GMS10_CENTRAL_NERVOUS_SYSTEM) was 0.4048. The AUC (GOS3_CENTRAL_NERVOUS_SYSTEM) was 0.5047, the AUC (GP2D_LARGE_INTESTINE) was 0.796 and the AUC (HARA_LUNG) was 0.7964. The AUC (HCC15_LUNG) was 0.9583, the AUC (HCC38_BREAST) was 0.4873 and the AUC (HCC44_LUNG) was 0.906. It also gave an AUC (HCC56_LARGE_INTESTINE) of 0.849, an AUC (HCC78_LUNG) of 0.793 and an AUC (HCC366_LUNG) of 0.3183. For the same molecule, the AUC (HCC827_LUNG) was 0.516, the AUC (HCC1143_BREAST) was 0.8133 and the AUC (HCC1195_LUNG) was 0.9004. For the same molecule, the AUC (HCC1359_LUNG) was 0.875, the AUC (HCC1395_BREAST) was 0.9508 and the AUC (HCC1419_BREAST) was 0.8487. The AUC (HCC1428_BREAST) was 0.9167, the AUC (HCC1438_LUNG) was 0.9701 and the AUC (HCC1806_BREAST) was 0.8775. It also gave an AUC (HCC1937_BREAST) of 0.579.
